Experimental data from US6274715A, “Tricyclic erythromycin derivatives” (priority 1997, dated 2001).
≈ marks a conversion by molar mass, not a printed value. Like-named read-outs stand apart in the source and are kept apart here.

Tests used:
Type in all cases: cell-based
PSEUDOMONAS CEPACIA 296I = assay: In vitro antibacterial activity, MIC, BHI agar dilution; conditions: P. cepacia 296I, unit assumed
CANDIDA ALBICANS CCH 442 = assay: as above
[1] = test system: PSEUDOMONAS AERUGINOSA BMH10; assay: as above
[2] = test system: STAPHYLOCOCCUS EPIDERMIDIS 3519; conditions: S. epidermidis 3519, BHI agar, unit assumed
[3] = test system: PSEUDOMONAS AERUGINOSA 5007; assay: In vitro antibacterial activity, MIC, BHI agar dilution; conditions: P. aeruginosa 5007, unit assumed
[4] = test system: STAPHYLOCOCCUS AUREUS 1775; assay: as above; conditions: S. aureus 1775, unit assumed
[5] = test system: STREPTOCOCCUS BOVIS A-5169; assay: as above; conditions: S. bovis A-5169, unit assumed
[6] = test system: PSEUDOMONAS AERUGINOSA K799/61; assay: as above
[7] = test system: KLEBSIELLA PNEUMONIAE ATCC 8045; assay: as above; conditions: K. pneumoniae ATCC 8045, unit assumed
[8] = test system: STAPHYLOCOCCUS AUREUS CMX 642A; assay: as above; conditions: S. aureus CMX 642A, unit assumed
ESCHERICHIA COLI H560 = assay: as above
[9] = test system: PROVIDENCIA STUARTII CMX 640; conditions: P. stuartii CMX 640; BHI agar; unit assumed
[10] = test system: MYCOBACTERIUM SMEGMATIS ATCC 114; assay: In vitro antibacterial activity, MIC, BHI agar dilution; conditions: M. smegmatis ATCC 114, unit assumed
STR[…] 508 = assay: as above
Method: (§1) Representative compounds of the present invention were assayed in vitro for antibacterial activity as follows: Twelve petri dishes containing successive aqueous dilutions of the test compound mixed with 10 mL of sterilized Brain Heart Infusion (BHI) agar (Difco 0418-01-5) were prepared. Each plate was inoculated with 1:100 (or 1:10 for slow-growing strains, such as Micrococcus and Streptococcus) dilutions of up to 32 different microorganisms, using a Steers replicator block. The inoculated plates were incubated at 35-37° C. for 20 to 24 hours. In addition, a control plate, using BHI agar containing no test compound, was prepared and incubated at the beginning and end of each test.
(§2) An additional plate containing a compound having known susceptibility patterns for the organisms being tested and belonging to the same antibiotic class as the test compound was also prepared and incubated as a further control, as well as to provide test-to-test comparability. Erythromycin A was used for this purpose.
(§3) After incubation, each plate was visually inspected. The minimum inhibitory concentration (MIC) was defmed as the lowest concentration of drug yielding no growth, a slight haze, or sparsely isolated colonies on the inoculum spot as compared to the growth control.

EN[…] ATCC 8043 = assay: as above; conditions: E. faecium ATCC 8043, unit assumed
Method: as §1, §2, §3

M[…] ATCC 9341 = assay: as above; conditions: M. luteus ATCC 9341, unit assumed
Method: as §1, §2, §3

[11] = test system: PSEUDOMONAS AERUGINOSA K799/WT; assay: as above; conditions: P. aeruginosa K799/WT
ESCHERICHIA COLI KNK 437 = conditions: E. coli KNK 437; BHI agar; unit assumed
[12] = test system: STAPHYLOCOCCUS AUREUS NCTC10649M; assay: In vitro antibacterial activity, MIC, BHI agar dilution; conditions: S. aureus NCTC10649M, unit assumed
[13] = test system: PSEUDOMONAS AERUGINOSA DPHD-2862; assay: as above; conditions: P. aeruginosa DPHD-2862, unit assumed
ESCHERICHIA COLI JUHL = conditions: E. coli JUHL, BHI agar, unit assumed
[14] = test system: STREPTOCOCCUS PYOGENES 930; assay: In vitro antibacterial activity, MIC, BHI agar dilution
[15] = test system: PSEUDOMONAS AERUGINOSA DPHD-5263; assay: as above; conditions: P. aeruginosa DPHD-5263, unit assumed
[16] = test system: STAPHYLOCOCCUS AUREUS ATCC 6538P; assay: as above; conditions: S. aureus ATCC 6538P, 35-37° C., 20 to 24 hours, listed as Ex 35, unit assumed
[17] = test system: STAPHYLOCOCCUS AUREUS A-5278; assay: as above; conditions: S. aureus A-5278, unit assumed
[18] = test system: STREPTOCOCCUS PYOGENES PIU 2548; assay: as above
[19] = test system: ENTEROBACTER AEROGENES ATCC 13048; assay: as above
[20] = test system: STAPHYLOCOCCUS AUREUS CMX 553; assay: as above; conditions: S. aureus CMX 553, unit assumed
ESCHERICHIA COLI SS = assay: as above; conditions: E. coli SS
ESCHERICHIA COLI DC-2 = assay: as above; conditions: E. coli DC-2, unit assumed
[21] = test system: STREPTOCOCCUS PYOGENES EES61; assay: as above
M[…] ATCC 4698 = assay: as above; conditions: M. luteus ATCC 4698, unit assumed
Method: as §1, §2, §3

[22] = C. albicans CCH 442, unit assumed
[23] = S. agalactiae CMX 508, unit assumed
[24] = P. aeruginosa BMH10, unit assumed
[25] = S. pyogenes EES61, unit assumed
[26] = S. pyogenes PIU 2548, unit assumed
[27] = E. aerogenes ATCC 13048, unit assumed

| Structure (SMILES) | MIC (PSEUDOMONAS CEPACIA 296I) | MIC (CANDIDA ALBICANS CCH 442; [22]) | MIC [3] | MIC [4] | MIC [5] | MIC [7] | MIC [8] | MIC [9] | MIC [10] | MIC (STR[…] 508; [23]) | MIC (EN[…] ATCC 8043) | MIC (M[…] ATCC 9341) | MIC (ESCHERICHIA COLI KNK 437) | MIC [12] | MIC [13] | MIC ([14]; S. pyogenes 930, unit assumed) | MIC [15] | MIC [17] | MIC (M[…] ATCC 4698) | MIC [18, 26] | also measured |
| --- | --- | --- | --- | --- | --- | --- | --- | --- | --- | --- | --- | --- | --- | --- | --- | --- | --- | --- | --- | --- | --- |
| CCC1OC(=O)C(C)C(=O)C(C)C(OC2OC(C)CC(N(C)C)C2O)C(C)(OC)CC(C)C2=NCC(CCc3ccccc3)N3C(=O)OC1(C)C3C2C (stereo not shown) [Example 35] | 100 µg/mL (≈ 135 µM) | > 100 µg/mL | > 100 µg/mL | > 100 µg/mL | 0.01 µg/mL (≈ 0.0135 µM) | > 100 µg/mL | 0.78 µg/mL (≈ 1.05 µM) | > 100 µg/mL | 0.39 µg/mL (≈ 0.526 µM) | 0.02 µg/mL (≈ 0.027 µM) | 0.2 µg/mL (≈ 0.27 µM) | 0.2 µg/mL (≈ 0.27 µM) | 100 µg/mL (≈ 135 µM) | 0.78 µg/mL (≈ 1.05 µM) | > 100 µg/mL | 50 µg/mL (≈ 67.4 µM) | > 100 µg/mL | > 100 µg/mL |  |  | MIC ([1]; P. aeruginosa BMH10, listed as Ex 35, unit assumed): > 100 µg/mL; MIC ([2]; listed as Ex 35): 0.39 µg/mL (≈ 0.526 µM); MIC ([6]; P. aeruginosa K799/61, listed as Ex 35, unit assumed): 3.1 µg/mL (≈ 4.18 µM); MIC (ESCHERICHIA COLI H560; E. coli H560, listed as Ex 35, unit assumed): 50 µg/mL (≈ 67.4 µM); MIC ([11]; listed as Ex 35, unit assumed): > 100 µg/mL; MIC (ESCHERICHIA COLI JUHL; listed as Ex 35): > 100 µg/mL; MIC [16]: 0.39 µg/mL (≈ 0.526 µM); MIC ([18]; S. pyogenes PIU 2548, listed as Ex 35, unit assumed): 0.39 µg/mL (≈ 0.526 µM); MIC ([19]; E. aerogenes ATCC 13048, listed as Ex 35, unit assumed): 100 µg/mL (≈ 135 µM) |
| CC[C@H]1OC(=O)[C@H](C)C(=O)[C@H](C)[C@@H](O[C@@H]2O[C@H](C)C[C@H](N(C)C)[C@H]2O)[C@](C)(OC)C[C@@H](C)C2=NC3CN(CC)CC3N3C(=O)O[C@@]1(C)[C@H]3[C@H]2C (stereo partly shown) [Example 115] | > 100 µg/mL | > 100 µg/mL | > 100 µg/mL | > 100 µg/mL | ≤ 0.005 µg/mL |  | 1.56 µg/mL (≈ 2.21 µM) | > 100 µg/mL | 12.5 µg/mL (≈ 17.7 µM) | 0.05 µg/mL (≈ 0.0707 µM) | 0.1 µg/mL (≈ 0.141 µM) | 0.1 µg/mL (≈ 0.141 µM) | 25 µg/mL (≈ 35.4 µM) | 0.78 µg/mL (≈ 1.1 µM) | > 100 µg/mL | > 100 µg/mL | > 100 µg/mL | > 100 µg/mL | 0.39 µg/mL (≈ 0.552 µM) | 0.78 µg/mL (≈ 1.1 µM) | MIC [20]: 1.56 µg/mL (≈ 2.21 µM); MIC [1, 24]: > 100 µg/mL; MIC [2]: 1.56 µg/mL (≈ 2.21 µM); MIC (ESCHERICHIA COLI SS; unit assumed): 0.39 µg/mL (≈ 0.552 µM); MIC (ESCHERICHIA COLI DC-2): 50 µg/mL (≈ 70.7 µM); MIC [21, 25]: 0.05 µg/mL (≈ 0.0707 µM); MIC ([6]; P. aeruginosa K799/61, unit assumed): 0.78 µg/mL (≈ 1.1 µM); MIC (ESCHERICHIA COLI H560; E. coli H560, unit assumed): 12.5 µg/mL (≈ 17.7 µM); MIC ([11]; unit assumed): > 100 µg/mL; MIC (ESCHERICHIA COLI JUHL): > 100 µg/mL; MIC [19, 27]: 50 µg/mL (≈ 70.7 µM) |
| CCC1OC(=O)C(C)C(=O)C(C)C(OC2OC(C)CC(N(C)C)C2O)C(C)(OC)CC(C)C2=NCC(C)(CN(C)C)N3C(=O)OC1(C)C3C2C (stereo not shown) [Example 136] | > 100 µg/mL | > 100 µg/mL | > 100 µg/mL | > 100 µg/mL | 0.02 µg/mL (≈ 0.0282 µM) | > 100 µg/mL | 1.56 µg/mL (≈ 2.2 µM) | > 100 µg/mL | 6.2 µg/mL (≈ 8.75 µM) | 0.1 µg/mL (≈ 0.141 µM) | 0.2 µg/mL (≈ 0.282 µM) | 0.1 µg/mL (≈ 0.141 µM) | > 100 µg/mL |  | > 100 µg/mL | > 100 µg/mL | > 100 µg/mL | > 100 µg/mL | 0.78 µg/mL (≈ 1.1 µM) | 1.56 µg/mL (≈ 2.2 µM) | MIC [20]: 1.56 µg/mL (≈ 2.2 µM); MIC [1, 24]: > 100 µg/mL; MIC [2]: 1.56 µg/mL (≈ 2.2 µM); MIC (ESCHERICHIA COLI SS; unit assumed): 0.78 µg/mL (≈ 1.1 µM); MIC (ESCHERICHIA COLI DC-2): > 100 µg/mL; MIC [21, 25]: 0.1 µg/mL (≈ 0.141 µM); MIC (ESCHERICHIA COLI H560; E. coli H560, unit assumed): 100 µg/mL (≈ 141 µM); MIC ([11]; unit assumed): > 100 µg/mL; MIC (ESCHERICHIA COLI JUHL): 100 µg/mL (≈ 141 µM); MIC [19, 27]: > 100 µg/mL |
| CC[C@H]1OC(=O)[C@H](C)C(=O)[C@H](C)[C@@H](O[C@@H]2O[C@H](C)C[C@H](N(C)C)[C@H]2O)[C@](C)(OC)C[C@@H](C)C2=NC(COCc3ccc(Cl)cc3)C(COCc3ccc(Cl)cc3)N3C(=O)O[C@@]1(C)[C@H]3[C@H]2C (stereo partly shown) [Example 148] |  |  |  |  | 0.2 µg/mL (≈ 0.211 µM) |  |  |  |  |  | 0.78 µg/mL (≈ 0.824 µM) |  |  |  |  |  |  | 12.5 µg/mL (≈ 13.2 µM) | 1.56 µg/mL (≈ 1.65 µM) | 3.1 µg/mL (≈ 3.27 µM) | MIC (CANDIDA ALBICANS CCH 442; C. albicans CCH 442, listed as Ex 148, unit assumed): > 100 µg/mL; MIC (ESCHERICHIA COLI SS; listed as Ex 148, unit assumed): 25 µg/mL (≈ 26.4 µM); MIC ([21]; S. pyogenes EES61, listed as Ex 148, unit assumed): 0.2 µg/mL (≈ 0.211 µM); MIC ([6]; P. aeruginosa K799/61, listed as Ex 148, unit assumed): 25 µg/mL (≈ 26.4 µM); MIC (STR[…] 508; S. agalactiae CMX 508, listed as Ex 148, unit assumed): 0.39 µg/mL (≈ 0.412 µM); MIC ([14]; S. pyogenes 930, listed as Ex 148, unit assumed): 6.2 µg/mL (≈ 6.55 µM) |
